Laboratory results published in patent US20230123334A1, “AMINO LIPID COMPOUND, PREPARATION METHOD THEREFOR, AND APPLICATION THEREOF” (SHENZHEN SHENXIN BIOTECHNOLOGY CO., LTD., priority 2020, published 2023).

Test system: HEK293 cells
Test: Preliminary screening as DNA vectors, GFP transfection of HEK293 cells
Format: cell-based
Details: amino lipid/DOPE liposome with 75 ng plasmid DNA (psin-EGFP-IRES-Puro); number of GFP-expressing cells divided by total nuclei (Hoechst)
In short: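 First, amino lipid and DOPE were vortexed in sodium acetate buffer (pH 5.6) to form liposomes. Next, these were held with 75 ng EGFP plasmid at room temperature for 30 min. Finally, HEK293 cells were added, cultured at 37° C., Hoechst-stained, and GFP+/total nuclei scored by imaging.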

Row | SMILES | Absolute DNA transfection efficiency in HEK293 cells
1 | CCCCCCCCCCCCN(CCCCCCCCCCCC)c1nc(NCCN(C)C)nc(SCCCCCCCCCCC)n1 [S11^2N12 D1] | 0.0%
2 | CCCCCCCCCCCCN(CCCCCCCCCCCC)c1nc(NCCN2CCOCC2)nc(SCCCCCCCCCCC)n1 [S11^2N12 D2] | 0.0%
3 | CCCCCCCCCCCCN(CCCCCCCCCCCC)c1nc(NCCN2CCCC2)nc(SCCCCCCCCCCC)n1 [S11^2N12 D3] | 0.0%
4 | CCCCCCCCCCCCN(CCCCCCCCCCCC)c1nc(NCCN2CCCCC2)nc(SCCCCCCCCCCC)n1 [S11^2N12 D4] | 0.0%
5 | CCCCCCCCCCCCN(CCCCCCCCCCCC)c1nc(NCCN2CCN(C)CC2)nc(SCCCCCCCCCCC)n1 [S11^2N12 D5] | 0.1%
6 | CCCCCCCCCCCCN(CCCCCCCCCCCC)c1nc(NCCCN(C)C)nc(SCCCCCCCCCCC)n1 [S11^2N12 D6] | 0.3%
7 | CCCCCCCCCCCCN(CCCCCCCCCCCC)c1nc(NCCN(CC)CC)nc(SCCCCCCCCCCC)n1 [S11^2N12 D7] | 0.1%
8 | CCCCCCCCCCCCN(CCCCCCCCCCCC)c1nc(NCCCN2CCOCC2)nc(SCCCCCCCCCCC)n1 [S11^2N12 D8] | 0.0%
9 | CCCCCCCCCCCCN(CCCCCCCCCCCC)c1nc(NCCCN2CCN(C)CC2)nc(SCCCCCCCCCCC)n1 [S11^2N12 D9] | 0.0%
10 | CCCCCCCCCCCCN(CCCCCCCCCCCC)c1nc(NCC2CCN(C)CC2)nc(SCCCCCCCCCCC)n1 [S11^2N12 D10] | 0.0%
11 | CCCCCCCCCCCCSc1nc(NCCCCCC)nc(NCCN(C)C)n1 [S12N6 D1] | 0.3%
12 | CCCCCCCCCCCCSc1nc(NCCCCCC)nc(NCCN2CCOCC2)n1 [S12N6 D2] | 0.1%
13 | CCCCCCCCCCCCSc1nc(NCCCCCC)nc(NCCN2CCCC2)n1 [S12N6 D3] | 0.0%
14 | CCCCCCCCCCCCSc1nc(NCCCCCC)nc(NCCN2CCCCC2)n1 [S12N6 D4] | 0.0%
15 | CCCCCCCCCCCCSc1nc(NCCCCCC)nc(NCCN2CCN(C)CC2)n1 [S12N6 D5] | 0.2%
16 | CCCCCCCCCCCCSc1nc(NCCCCCC)nc(NCCCN(C)C)n1 [S12N6 D6] | 1.1%
17 | CCCCCCCCCCCCSc1nc(NCCCCCC)nc(NCCN(CC)CC)n1 [S12N6 D7] | 6.5%
18 | CCCCCCCCCCCCSc1nc(NCCCCCC)nc(NCCCN2CCOCC2)n1 [S12N6 D8] | 0.1%
19 | CCCCCCCCCCCCSc1nc(NCCCCCC)nc(NCCCN2CCN(C)CC2)n1 [S12N6 D9] | 0.3%
20 | CCCCCCCCCCCCSc1nc(NCCCCCC)nc(NCC2CCN(C)CC2)n1 [S12N6 D10] | 0.1%
21 | CCCCCCCCCCCCSc1nc(NCCCCCCC)nc(NCCN(C)C)n1 [S12N7 D1] | 6.9%
22 | CCCCCCCCCCCCSc1nc(NCCCCCCC)nc(NCCN2CCOCC2)n1 [S12N7 D2] | 0.1%

Row | SMILES | Absolute DNA transfection efficiency in HEK293 cells
23 | CCCCCCCCCCCCSc1nc(NCCCCCCC)nc(NCCN2CCCC2)n1 [S12N7 D3] | 3.2%
24 | CCCCCCCCCCCCSc1nc(NCCCCCCC)nc(NCCN2CCCCC2)n1 [S12N7 D4] | 0.2%
25 | CCCCCCCCCCCCSc1nc(NCCCCCCC)nc(NCCN2CCN(C)CC2)n1 [S12N7 D5] | 3.6%
26 | CCCCCCCCCCCCSc1nc(NCCCCCCC)nc(NCCCN(C)C)n1 [S12N7 D6] | 11.2%
27 | CCCCCCCCCCCCSc1nc(NCCCCCCC)nc(NCCN(CC)CC)n1 [S12N7 D7] | 3.4%
28 | CCCCCCCCCCCCSc1nc(NCCCCCCC)nc(NCCCN2CCOCC2)n1 [S12N7 D8] | 0.3%
29 | CCCCCCCCCCCCSc1nc(NCCCCCCC)nc(NCCCN2CCN(C)CC2)n1 [S12N7 D9] | 0.3%
30 | CCCCCCCCCCCCSc1nc(NCCCCCCC)nc(NCC2CCN(C)CC2)n1 [S12N7 D10] | 5.8%
31 | CCCCCCCCCCCCSc1nc(NCCCCCCCC)nc(NCCN(C)C)n1 [S12N8 D1] | 6.0%
32 | CCCCCCCCCCCCSc1nc(NCCCCCCCC)nc(NCCN2CCOCC2)n1 [S12N8 D2] | 0.1%
33 | CCCCCCCCCCCCSc1nc(NCCCCCCCC)nc(NCCN2CCCC2)n1 [S12N8 D3] | 1.5%
34 | CCCCCCCCCCCCSc1nc(NCCCCCCCC)nc(NCCN2CCCCC2)n1 [S12N8 D4] | 0.0%
35 | CCCCCCCCCCCCSc1nc(NCCCCCCCC)nc(NCCN2CCN(C)CC2)n1 [S12N8 D5] | 13.8%
36 | CCCCCCCCCCCCSc1nc(NCCCCCCCC)nc(NCCCN(C)C)n1 [S12N8 D6] | 43.1%
37 | CCCCCCCCCCCCSc1nc(NCCCCCCCC)nc(NCCN(CC)CC)n1 [S12N8 D7] | 0.1%
38 | CCCCCCCCCCCCSc1nc(NCCCCCCCC)nc(NCCCN2CCOCC2)n1 [S12N8 D8] | 0.0%
39 | CCCCCCCCCCCCSc1nc(NCCCCCCCC)nc(NCCCN2CCN(C)CC2)n1 [S12N8 D9] | 8.9%
40 | CCCCCCCCCCCCSc1nc(NCCCCCCCC)nc(NCC2CCN(C)CC2)n1 [S12N8 D10] | 16.3%
41 | CCCCCCCCCCCCSc1nc(NCCCCCCCCC)nc(NCCN(C)C)n1 [S12N9 D1] | 4.5%
42 | CCCCCCCCCCCCSc1nc(NCCCCCCCCC)nc(NCCN2CCOCC2)n1 [S12N9 D2] | 0.0%
43 | CCCCCCCCCCCCSc1nc(NCCCCCCCCC)nc(NCCN2CCCC2)n1 [S12N9 D3] | 7.0%
44 | CCCCCCCCCCCCSc1nc(NCCCCCCCCC)nc(NCCN2CCCCC2)n1 [S12N9 D4] | 0.1%

Row | SMILES | Absolute DNA transfection efficiency in HEK293 cells
45 | CCCCCCCCCCCCSc1nc(NCCCCCCCCC)nc(NCCN2CCN(C)CC2)n1 [S12N9 D5] | 20.2%
46 | CCCCCCCCCCCCSc1nc(NCCCCCCCCC)nc(NCCCN(C)C)n1 [S12N9 D6] | 37.0%
47 | CCCCCCCCCCCCSc1nc(NCCCCCCCCC)nc(NCCN(CC)CC)n1 [S12N9 D7] | 0.8%
48 | CCCCCCCCCCCCSc1nc(NCCCCCCCCC)nc(NCCCN2CCOCC2)n1 [S12N9 D8] | 0.0%
49 | CCCCCCCCCCCCSc1nc(NCCCCCCCCC)nc(NCCCN2CCN(C)CC2)n1 [S12N9 D9] | 10.9%
50 | CCCCCCCCCCCCSc1nc(NCCCCCCCCC)nc(NCC2CCN(C)CC2)n1 [S12N9 D10] | 11.3%
51 | CCCCCCCCCCCCSc1nc(NCCCCCCCCCCC)nc(NCCN(C)C)n1 [S12N11 D1] | 3.2%
52 | CCCCCCCCCCCCSc1nc(NCCCCCCCCCCC)nc(NCCN2CCOCC2)n1 [S12N11 D2] | 0.3%
53 | CCCCCCCCCCCCSc1nc(NCCCCCCCCCCC)nc(NCCN2CCCC2)n1 [S12N11 D3] | 30.3%
54 | CCCCCCCCCCCCSc1nc(NCCCCCCCCCCC)nc(NCCN2CCCCC2)n1 [S12N11 D4] | 1.0%
55 | CCCCCCCCCCCCSc1nc(NCCCCCCCCCCC)nc(NCCN2CCN(C)CC2)n1 [S12N11 D5] | 8.0%
56 | CCCCCCCCCCCCSc1nc(NCCCCCCCCCCC)nc(NCCCN(C)C)n1 [S12N11 D6] | 14.9%
57 | CCCCCCCCCCCCSc1nc(NCCCCCCCCCCC)nc(NCCN(CC)CC)n1 [S12N11 D7] | 5.8%
58 | CCCCCCCCCCCCSc1nc(NCCCCCCCCCCC)nc(NCCCN2CCOCC2)n1 [S12N11 D8] | 0.0%
59 | CCCCCCCCCCCCSc1nc(NCCCCCCCCCCC)nc(NCCCN2CCN(C)CC2)n1 [S12N11 D9] | 3.9%
60 | CCCCCCCCCCCCSc1nc(NCCCCCCCCCCC)nc(NCC2CCN(C)CC2)n1 [S12N11 D10] | 19.6%
61 | CCCCCCCCCCCCNc1nc(NCCN(C)C)nc(SCCCCCCCCCCCC)n1 [S12N12 D1] | 7.9%
62 | CCCCCCCCCCCCNc1nc(NCCN2CCOCC2)nc(SCCCCCCCCCCCC)n1 [S12N12 D2] | 0.0%
63 | CCCCCCCCCCCCNc1nc(NCCN2CCCC2)nc(SCCCCCCCCCCCC)n1 [S12N12 D3] | 31.4%
64 | CCCCCCCCCCCCNc1nc(NCCN2CCCCC2)nc(SCCCCCCCCCCCC)n1 [S12N12 D4] | 0.1%
65 | CCCCCCCCCCCCNc1nc(NCCN2CCN(C)CC2)nc(SCCCCCCCCCCCC)n1 [S12N12 D5] | 3.5%
66 | CCCCCCCCCCCCNc1nc(NCCCN(C)C)nc(SCCCCCCCCCCCC)n1 [S12N12 D6] | 9.1%
